# Read-outs that look alike come from different tables or passages of the source.
# What was measured:
# PI3K γ = target: T1, PI3K γ (Homo sapiens, UniProt P48736); experiment: In vitro PI3K γ inhibition assay; format: biochemical
# T1 construct: purchased Sigma
# Protocol: (§1) Class I PI3-Ks can be either purchased (p110α/p85α, p110β/p85α, p110δ/p85α from Upstate, and p110γ from Sigma) or expressed as previously described (Knight et al., 2004). IC50 values are measured using either a standard TLC assay for lipid kinase activity (described below) or a high-throughput membrane capture assay. Kinase reactions are performed by preparing a reaction mixture containing kinase, inhibitor (2% DMSO final concentration), buffer (25 mM HEPES, pH 7.4, 10 mM MgCl2), and freshly sonicated phosphatidylinositol (100 μg/ml). Reactions are initiated by the addition of ATP containing 10 μCi of γ-32P-ATP to a final concentration of 10 or 100 μM and allowed to proceed for 5 minutes at room temperature. For TLC analysis, reactions are then terminated by the addition of 105 μl 1N HCl followed by 160 μl CHCl3:MeOH (1:1). The biphasic mixture is vortexed, briefly centrifuged, and the organic phase is transferred to a new tube using a gel loading pipette tip precoated with CHCl3. This extract is spotted on TLC plates and developed for 3-4 hours in a 65:35 solution of n-propanol:1M acetic acid. The TLC plates are then dried, exposed to a phosphorimager screen (Storm, Amersham), and quantitated. For each compound, kinase activity is measured at 10-12 inhibitor concentrations representing two-fold dilutions from the highest concentration tested (typically, 200 μM). […] Other commercial kits or systems for assaying PI3-K activities are available. The commercially available kits or systems can be used to screen for inhibitors and/or agonists of PI3-Ks including, but not limited to, PI 3-Kinase α, β, δ, and γ. An exemplary system is PI 3-Kinase (human) HTRF™ Assay from Upstate. […] Briefly, the assay is a time resolved FRET assay that indirectly measures PIP3 product formed by the activity of a PI3-K. The kinase reaction is performed in a microtiter plate (e.g., a 384 well microtiter plate). The total reaction volume is approximately 20 μl per well. In the first step, each well receives 2 μl of test compound in 20% dimethylsulphoxide resulting in a 2% DMSO final concentration. Next, approximately 14.5 μl of a kinase/PIP2 mixture (diluted in 1× reaction buffer) is added per well for a final concentration of 0.25-0.3 μg/ml kinase and 10 μM PIP2. The plate is sealed and incubated for 15 minutes at room temperature. To start the reaction, 3.5 μl of ATP (diluted in 1× reaction buffer) is added per well for a final concentration of 10 μM ATP. The plate is sealed and incubated for 1 hour at room temperature. The reaction is stopped by adding 5 μl of Stop Solution per well and then 5 μl of Detection Mix is added per well. The plate is sealed, incubated for 1 hour at room temperature, and then read on an appropriate plate reader. Data is analyzed and IC50s are generated using GraphPad Prism 5.
# PI3K α = target: T2, PI3K α (Homo sapiens, UniProt P42336); experiment: In vitro PI3K α inhibition assay; format: biochemical
# T2 construct: purchased Upstate
# Protocol: (§2) Class I PI3-Ks can be either purchased (p110α/p85α, p110β/p85α, p110δ/p85α from Upstate, and p110γ from Sigma) or expressed as previously described (Knight et al., 2004). IC50 values are measured using either a standard TLC assay for lipid kinase activity (described below) or a high-throughput membrane capture assay. Kinase reactions are performed by preparing a reaction mixture containing kinase, inhibitor (2% DMSO final concentration), buffer (25 mM HEPES, pH 7.4, 10 mM MgCl2), and freshly sonicated phosphatidylinositol (100 μg/ml). Reactions are initiated by the addition of ATP containing 10 μCi of γ-32P-ATP to a final concentration of 10 or 100 μM and allowed to proceed for 5 minutes at room temperature. For TLC analysis, reactions are then terminated by the addition of 105 μl 1N HCl followed by 160 μl CHCl3:MeOH (1:1). The biphasic mixture is vortexed, briefly centrifuged, and the organic phase is transferred to a new tube using a gel loading pipette tip precoated with CHCl3. This extract is spotted on TLC plates and developed for 3-4 hours in a 65:35 solution of n-propanol:1M acetic acid. The TLC plates are then dried, exposed to a phosphorimager screen (Storm, Amersham), and quantitated. For each compound, kinase activity is measured at 10-12 inhibitor concentrations representing two-fold dilutions from the highest concentration tested (typically, 200 μM).
# (§3) Other commercial kits or systems for assaying PI3-K activities are available. The commercially available kits or systems can be used to screen for inhibitors and/or agonists of PI3-Ks including, but not limited to, PI 3-Kinase α, β, δ, and γ. An exemplary system is PI 3-Kinase (human) HTRF™ Assay from Upstate. […] Briefly, the assay is a time resolved FRET assay that indirectly measures PIP3 product formed by the activity of a PI3-K. The kinase reaction is performed in a microtiter plate (e.g., a 384 well microtiter plate). The total reaction volume is approximately 20 μl per well. In the first step, each well receives 2 μl of test compound in 20% dimethylsulphoxide resulting in a 2% DMSO final concentration. Next, approximately 14.5 μl of a kinase/PIP2 mixture (diluted in 1× reaction buffer) is added per well for a final concentration of 0.25-0.3 μg/ml kinase and 10 μM PIP2. The plate is sealed and incubated for 15 minutes at room temperature. To start the reaction, 3.5 μl of ATP (diluted in 1× reaction buffer) is added per well for a final concentration of 10 μM ATP. The plate is sealed and incubated for 1 hour at room temperature. The reaction is stopped by adding 5 μl of Stop Solution per well and then 5 μl of Detection Mix is added per well. The plate is sealed, incubated for 1 hour at room temperature, and then read on an appropriate plate reader. Data is analyzed and IC50s are generated using GraphPad Prism 5.
# Balb/c splenic B cells = experiment: B cell activation and proliferation assay (Alamar Blue); format: cell-based; conditions: Mus musculus
# Protocol: The ability of one or more subject compounds to inhibit B cell activation and proliferation is determined according to standard procedures known in the art. For example, an in vitro cellular proliferation assay is established that measures the metabolic activity of live cells. The assay is performed in a 96 well microtiter plate using Alamar Blue reduction. Balb/c splenic B cells are purified over a Ficoll-Paque™ PLUS gradient followed by magnetic cell separation using a MACS B cell Isolation Kit (Miletenyi). Cells are plated in 90 μl at 50,000 cells/well in B Cell Media (RPMI+10% FBS+Penn/Strep+50 μM bME+5 mM HEPES). A compound disclosed herein is diluted in B Cell Media and added in a 10 μl volume. Plates are incubated for 30 min at 37° C. and 5% CO2 (0.2% DMSO final concentration). A 50 μl B cell stimulation cocktail is then added containing either 10 μg/ml LPS or 5 μg/ml F(ab′)2 Donkey anti-mouse IgM plus 2 ng/ml recombinant mouse IL4 in B Cell Media. Plates are incubated for 72 hours at 37° C. and 5% CO2. A volume of 15 μL of Alamar Blue reagent is added to each well and plates are incubated for 5 hours at 37° C. and 5% CO2. Alamar Blue fluoresce is read at 560Ex/590Em, and IC50 or EC50 values are calculated using GraphPad Prism 5.
# PI3K β = target: T3, PI3K β (Homo sapiens, UniProt P42338); experiment: In vitro PI3K β inhibition assay; format: biochemical
# T3 construct: purchased Upstate
# Protocol: as §2, §3
# PI3K δ = target: T4, PI3K δ (Homo sapiens, UniProt O00329); experiment: In vitro PI3K δ inhibition assay; format: biochemical
# T4 construct: purchased Upstate
# Protocol: as §1
# B6.Sle1z.Sle3z model = conditions: cited from earlier work
# [1] = PBS pH 7.4, 37° C., 24 hours; cited from earlier work
# [2] = reference compounds, 5 μM; cited from earlier work
# [3] = read-out: B cell proliferation EC50
# [4] = read-out: B cell proliferation EC50 (nM)
# T3 sequence (P42338 whole entry): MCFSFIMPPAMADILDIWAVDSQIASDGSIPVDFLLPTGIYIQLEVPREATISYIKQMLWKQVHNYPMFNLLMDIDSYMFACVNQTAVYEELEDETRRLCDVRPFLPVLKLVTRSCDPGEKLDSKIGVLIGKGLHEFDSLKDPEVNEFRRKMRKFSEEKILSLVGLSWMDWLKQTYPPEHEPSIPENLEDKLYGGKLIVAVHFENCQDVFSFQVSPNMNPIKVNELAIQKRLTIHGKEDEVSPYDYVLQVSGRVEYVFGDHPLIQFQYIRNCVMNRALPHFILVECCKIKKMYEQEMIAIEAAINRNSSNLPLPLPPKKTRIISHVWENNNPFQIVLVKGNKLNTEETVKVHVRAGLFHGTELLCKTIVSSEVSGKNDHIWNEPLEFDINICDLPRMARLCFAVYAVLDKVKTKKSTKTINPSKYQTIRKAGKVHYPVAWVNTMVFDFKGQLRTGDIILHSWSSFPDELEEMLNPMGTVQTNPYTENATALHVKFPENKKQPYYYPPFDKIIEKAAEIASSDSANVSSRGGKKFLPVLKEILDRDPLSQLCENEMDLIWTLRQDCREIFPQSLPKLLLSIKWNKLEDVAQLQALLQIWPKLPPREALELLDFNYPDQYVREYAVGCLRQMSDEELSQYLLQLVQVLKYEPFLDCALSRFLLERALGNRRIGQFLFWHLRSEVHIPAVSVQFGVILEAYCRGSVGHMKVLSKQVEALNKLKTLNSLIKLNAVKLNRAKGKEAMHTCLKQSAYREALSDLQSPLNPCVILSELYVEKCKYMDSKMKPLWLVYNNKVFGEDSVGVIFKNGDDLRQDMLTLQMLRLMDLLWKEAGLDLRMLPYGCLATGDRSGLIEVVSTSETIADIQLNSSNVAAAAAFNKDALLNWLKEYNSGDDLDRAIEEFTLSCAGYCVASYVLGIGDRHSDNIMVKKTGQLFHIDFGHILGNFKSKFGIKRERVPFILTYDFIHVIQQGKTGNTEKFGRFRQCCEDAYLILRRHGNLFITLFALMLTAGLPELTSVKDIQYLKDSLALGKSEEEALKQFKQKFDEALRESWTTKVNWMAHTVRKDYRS
# T3 sequence (P27986 whole entry partner): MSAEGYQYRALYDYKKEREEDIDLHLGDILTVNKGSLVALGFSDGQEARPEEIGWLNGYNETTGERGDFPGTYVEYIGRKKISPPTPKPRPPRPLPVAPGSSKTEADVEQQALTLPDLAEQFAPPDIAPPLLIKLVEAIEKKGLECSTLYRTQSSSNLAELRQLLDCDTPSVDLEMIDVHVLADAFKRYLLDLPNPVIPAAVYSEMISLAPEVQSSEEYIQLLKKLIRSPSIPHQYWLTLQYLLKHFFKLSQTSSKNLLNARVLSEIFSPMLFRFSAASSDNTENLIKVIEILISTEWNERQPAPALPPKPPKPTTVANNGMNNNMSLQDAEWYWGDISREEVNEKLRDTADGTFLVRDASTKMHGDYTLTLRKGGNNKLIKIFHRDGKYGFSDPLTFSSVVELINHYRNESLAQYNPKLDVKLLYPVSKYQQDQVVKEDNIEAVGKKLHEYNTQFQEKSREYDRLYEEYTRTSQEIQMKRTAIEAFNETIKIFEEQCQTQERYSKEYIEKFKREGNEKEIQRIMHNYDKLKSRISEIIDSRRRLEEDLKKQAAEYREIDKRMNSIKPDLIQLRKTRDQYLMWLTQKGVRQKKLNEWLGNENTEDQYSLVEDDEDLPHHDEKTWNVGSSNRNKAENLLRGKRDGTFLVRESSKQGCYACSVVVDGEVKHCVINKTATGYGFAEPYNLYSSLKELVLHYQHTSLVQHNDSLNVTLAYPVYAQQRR
# T1 sequence (P48736 whole entry): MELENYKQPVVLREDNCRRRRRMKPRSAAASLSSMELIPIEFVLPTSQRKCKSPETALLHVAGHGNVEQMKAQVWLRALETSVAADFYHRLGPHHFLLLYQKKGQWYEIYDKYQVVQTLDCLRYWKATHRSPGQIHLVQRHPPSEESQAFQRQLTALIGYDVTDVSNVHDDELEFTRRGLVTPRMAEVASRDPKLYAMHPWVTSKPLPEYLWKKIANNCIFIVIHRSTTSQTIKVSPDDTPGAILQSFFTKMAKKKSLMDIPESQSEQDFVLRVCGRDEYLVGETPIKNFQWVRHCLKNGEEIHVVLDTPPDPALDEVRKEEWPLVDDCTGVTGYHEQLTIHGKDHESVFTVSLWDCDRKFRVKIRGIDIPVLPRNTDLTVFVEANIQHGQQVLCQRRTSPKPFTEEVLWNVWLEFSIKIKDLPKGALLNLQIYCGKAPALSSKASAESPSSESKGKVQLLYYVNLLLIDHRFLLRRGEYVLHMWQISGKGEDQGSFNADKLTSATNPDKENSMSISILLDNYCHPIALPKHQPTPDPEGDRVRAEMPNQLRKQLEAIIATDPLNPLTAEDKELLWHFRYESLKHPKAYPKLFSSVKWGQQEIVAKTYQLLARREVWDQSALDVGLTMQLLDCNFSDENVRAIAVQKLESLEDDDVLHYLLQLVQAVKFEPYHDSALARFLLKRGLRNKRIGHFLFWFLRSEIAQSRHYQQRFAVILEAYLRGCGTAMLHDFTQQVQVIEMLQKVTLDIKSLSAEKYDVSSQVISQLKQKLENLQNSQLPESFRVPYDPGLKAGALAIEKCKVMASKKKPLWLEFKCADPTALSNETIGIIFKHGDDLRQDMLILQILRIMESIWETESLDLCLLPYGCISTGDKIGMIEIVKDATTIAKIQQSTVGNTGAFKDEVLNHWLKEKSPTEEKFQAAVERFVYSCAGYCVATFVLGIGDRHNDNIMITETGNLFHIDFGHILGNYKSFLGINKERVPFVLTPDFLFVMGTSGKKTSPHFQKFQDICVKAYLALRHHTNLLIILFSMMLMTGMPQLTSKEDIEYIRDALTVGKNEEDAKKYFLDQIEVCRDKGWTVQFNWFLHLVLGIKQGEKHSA
# T2 sequence (P42336 whole entry): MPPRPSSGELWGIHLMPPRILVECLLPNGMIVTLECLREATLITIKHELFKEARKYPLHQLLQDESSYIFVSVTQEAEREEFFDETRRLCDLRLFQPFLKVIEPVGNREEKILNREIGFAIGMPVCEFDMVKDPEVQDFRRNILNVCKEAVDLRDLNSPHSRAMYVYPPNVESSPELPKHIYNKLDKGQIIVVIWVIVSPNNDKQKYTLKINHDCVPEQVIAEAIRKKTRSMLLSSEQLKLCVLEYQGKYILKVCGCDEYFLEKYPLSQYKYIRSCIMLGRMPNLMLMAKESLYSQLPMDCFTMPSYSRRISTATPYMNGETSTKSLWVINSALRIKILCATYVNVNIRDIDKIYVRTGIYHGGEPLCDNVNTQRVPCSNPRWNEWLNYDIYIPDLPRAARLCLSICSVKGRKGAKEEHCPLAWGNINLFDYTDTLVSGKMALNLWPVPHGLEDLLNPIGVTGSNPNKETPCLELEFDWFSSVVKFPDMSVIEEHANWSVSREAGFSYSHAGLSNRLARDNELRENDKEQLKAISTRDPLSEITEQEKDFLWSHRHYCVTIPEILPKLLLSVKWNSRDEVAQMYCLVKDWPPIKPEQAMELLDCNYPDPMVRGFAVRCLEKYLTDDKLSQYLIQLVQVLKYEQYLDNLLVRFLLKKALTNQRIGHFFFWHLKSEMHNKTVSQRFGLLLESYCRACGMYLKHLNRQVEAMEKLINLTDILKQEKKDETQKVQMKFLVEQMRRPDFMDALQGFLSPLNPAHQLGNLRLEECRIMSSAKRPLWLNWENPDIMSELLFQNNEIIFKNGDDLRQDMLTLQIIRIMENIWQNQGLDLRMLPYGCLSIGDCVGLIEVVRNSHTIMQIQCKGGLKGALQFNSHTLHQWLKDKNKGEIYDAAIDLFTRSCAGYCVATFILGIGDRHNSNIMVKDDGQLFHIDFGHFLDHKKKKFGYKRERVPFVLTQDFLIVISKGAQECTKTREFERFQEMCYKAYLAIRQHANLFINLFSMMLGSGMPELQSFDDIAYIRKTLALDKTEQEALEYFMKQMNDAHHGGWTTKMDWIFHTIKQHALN
# T2 sequence (P27986 whole entry partner): as the sequence (P27986 whole entry partner) above
# T4 sequence (O00329 whole entry): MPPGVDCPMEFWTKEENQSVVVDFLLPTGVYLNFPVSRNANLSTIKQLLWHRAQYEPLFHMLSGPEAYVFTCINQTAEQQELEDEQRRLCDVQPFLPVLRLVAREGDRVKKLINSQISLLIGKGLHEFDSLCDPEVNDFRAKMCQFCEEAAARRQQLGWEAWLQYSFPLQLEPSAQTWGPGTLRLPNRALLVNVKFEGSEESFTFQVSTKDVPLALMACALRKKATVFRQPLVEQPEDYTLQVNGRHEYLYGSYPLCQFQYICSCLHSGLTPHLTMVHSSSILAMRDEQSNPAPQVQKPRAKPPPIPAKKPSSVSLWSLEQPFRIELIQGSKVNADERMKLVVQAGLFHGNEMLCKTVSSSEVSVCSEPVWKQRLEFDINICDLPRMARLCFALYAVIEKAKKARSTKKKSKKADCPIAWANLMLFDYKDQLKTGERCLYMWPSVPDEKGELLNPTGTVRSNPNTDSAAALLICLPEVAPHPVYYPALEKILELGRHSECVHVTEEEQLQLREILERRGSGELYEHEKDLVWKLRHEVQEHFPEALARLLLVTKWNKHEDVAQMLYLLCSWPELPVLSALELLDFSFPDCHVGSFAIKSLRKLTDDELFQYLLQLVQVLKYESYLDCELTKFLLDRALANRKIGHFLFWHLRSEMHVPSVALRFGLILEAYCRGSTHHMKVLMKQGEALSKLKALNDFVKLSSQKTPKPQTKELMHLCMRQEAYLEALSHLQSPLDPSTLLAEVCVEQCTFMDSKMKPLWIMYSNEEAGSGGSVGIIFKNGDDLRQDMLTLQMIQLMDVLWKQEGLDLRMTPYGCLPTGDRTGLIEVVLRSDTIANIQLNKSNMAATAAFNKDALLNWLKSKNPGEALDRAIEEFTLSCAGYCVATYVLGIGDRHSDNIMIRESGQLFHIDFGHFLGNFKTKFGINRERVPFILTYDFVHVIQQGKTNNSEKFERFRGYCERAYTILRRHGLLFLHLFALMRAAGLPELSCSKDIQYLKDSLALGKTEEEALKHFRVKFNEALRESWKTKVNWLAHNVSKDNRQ
# T4 sequence (P27986 whole entry partner): as the sequence (P27986 whole entry partner) above
IC50 (PI3K γ) [nM],IC50 (PI3K α) [nM],IC50 (PI3K β) [nM],IC50 (PI3K δ) [nM],Structure (SMILES),EC50 (Balb/c splenic B cells; [3]) [nM],EC50 (Balb/c splenic B cells; [4]) [nM],lupus symptoms (B6.Sle1z.Sle3z model),chemical stability [1],plasma stability [2]
< 100,< 10000,< 10000,< 100,C[C@@H](Nc1ncnc2[nH]cnc12)c1cc2cccc(-c3cccnc3)c2c(=O)n1-c1ccccc1 (stereo in doubt) [Compound 7],< 100,,,,
< 100,< 10000,< 10000,< 100,"C=Cc1cccc2cc(C(C)Nc3ncnc4[nH]cnc34)n(-c3ccccc3)c(=O)c12 (stereo in doubt) [Compound 8, (S)-3-(1-((9H-purin-6-yl)amino)ethyl)-2-phenyl-8-vinylisoquinolin-1(2H)-one]",< 100,,,,
< 100,< 10000,< 10000,< 100,"CCc1cccc2cc(C(C)Nc3ncnc4[nH]cnc34)n(-c3ccccc3)c(=O)c12 (stereo in doubt) [Compound 9, (S)-3-(1-((9H-purin-6-yl)amino)ethyl)-8-ethyl-2-phenylisoquinolin-1(2H)-one]",< 100,,,,
< 100,> 10000,< 10000,< 100,"CC(Nc1ncnc2[nH]cnc12)c1cc2cccc(C#N)c2c(=O)n1-c1ccccc1 (stereo in doubt) [Compound 16, (S)-3-(1-((9H-purin-6-yl)amino)ethyl)-1-oxo-2-phenyl-1,2-dihydroisoquinoline-8-carbonitrile]",< 100,,,,
< 10000,> 10000,> 10000,< 10000,C[C@@H](Nc1ncnc2[nH]cnc12)c1cc2cccc(N(C)C)c2c(=O)n1-c1ccccc1 (stereo in doubt) [Compound 17],< 100,,,,
< 100,> 10000,> 10000,< 100,C[C@@H](Nc1ncnc2[nH]cnc12)c1cc2cccc(-c3cc[nH]n3)c2c(=O)n1-c1ccccc1 (stereo in doubt) [Compound 18],< 100,,,,
< 100,> 10000,> 10000,< 100,C[C@@H](Nc1ncnc2[nH]cnc12)c1cc2cccc(-c3cnn(C)c3)c2c(=O)n1-c1ccccc1 (stereo in doubt) [Compound 19],< 100,,,,
< 1000,< 10000,< 10000,< 100,C[C@@H](Nc1ncnc2[nH]cnc12)c1cc2cccc(-c3cnn(C)c3)c2c(=O)n1C1CC1 (stereo in doubt) [Compound 20],< 100,,,,
< 100,< 10000,< 10000,< 100,C[C@@H](Nc1ncnc2[nH]cnc12)c1cc2cccc(-c3ccncc3)c2c(=O)n1-c1ccccc1 (stereo in doubt) [Compound 21],< 100,,,,
< 100,< 1000,< 1000,< 100,C[C@@H](Nc1ncnc2[nH]cnc12)c1cc2cccc(-c3cn[nH]c3)c2c(=O)n1C1CC1 [Compound 12],< 100,,,,
,,,,"CO[C@H]1C[C@@H]2CC[C@@H](C)[C@@](O)(O2)C(=O)C(=O)N2CCCC[C@H]2C(=O)O[C@H]([C@H](C)C[C@@H]2CC[C@@H](OCCO)[C@H](OC)C2)CC(=O)[C@H](C)/C=C(\C)[C@@H](O)[C@@H](OC)C(=O)[C@H](C)C[C@H](C)/C=C/C=C/C=C/1C [RAD001, everolimus]",,,ameliorate lupus symptoms,,
,,,,O=C(O)CCCc1ccc(N(CCCl)CCCl)cc1 [chlorambucil],,,,largely hydrolyzed over the course of 24 hours,
,,,,CC(C)[N+](C)(CCOC(=O)C1c2ccccc2Oc2ccccc21)C(C)C [propantheline],,,,,intermediate plasma stability
,,,,CCCOc1cc(N)ccc1C(=O)OCCN(CC)CC [propoxycaine],,,,,low plasma stability

Structure (SMILES),IC50 (PI3K γ) [nM],IC50 (PI3K α) [nM],IC50 (PI3K β) [nM],IC50 (PI3K δ) [nM],EC50 (Balb/c splenic B cells; [3]) [nM],EC50 (Balb/c splenic B cells; [4]) [nM],lupus symptoms (B6.Sle1z.Sle3z model),chemical stability [1],plasma stability [2]
C[C@@H](Nc1ncnc2[nH]cnc12)c1cc2cccc(-c3cccnc3)c2c(=O)n1C1CC1 (stereo in doubt) [Compound 13],< 100,< 10000,< 1000,< 100,,< 100,,,
C[C@@H](Nc1ncnc2[nH]cnc12)c1cc2cccc(-c3cccc(F)c3)c2c(=O)n1-c1ccccc1 (stereo in doubt) [Compound 25],< 100,< 10000,< 10000,< 100,,< 100,,,
